Measurements taken from PMC8522729 (Antimicrobial Agents and Chemotherapy, 2021).
Values after ≈ are worked out from the molar mass of the structure shown. Read-outs that look alike come from different tables or passages of the source.

Legend:
[1] = cited from earlier work
M. tuberculosis H37Rv [2] = test system: M. tuberculosis H37Rv; set-up: method as in PMID 19299584; conditions: cited from earlier work
[3] = cited from earlier work; remark: listed apart in the source
M. tuberculosis Erdman = assay: MIC by broth microdilution (MABA), with and without 4% huSA (serum-shift assay); conditions: for Serum shift (fold increase): M. tuberculosis Erdman, MIC with 4% huSA vs without; for protein binding by this assay (MIC shift): indicated by 8-fold MIC shift with 4% huSA
M. tuberculosis [4] = conditions: QD, cited from earlier work
[5] = Plasma, lung and lesion drug levels (LC-MS/MS and LCM-LC-MS/MS)
[6] = C3HeB/FeJ, mouse, in vivo
[7] = test system: nonreplicating bacteria in rabbit caseum; assay: Caseum MBC assay; format: cell-based, Mycobacterium tuberculosis; conditions: 7 days
[8] = test system: M. tuberculosis Erdman-infected C3HeB/FeJ mice; assay: Efficacy in the C3HeB/FeJ mouse tuberculosis model (CFU in lungs and spleens, kill rates); format: in vivo; conditions: for dose at which maximal efficacy in spleens was achieved / LME (lowest dose with the maximum effect) in lungs: 8 weeks of treatment, OPC-167832 QD; for dose at which maximal efficacy in spleens was achieved: TBA-7371 BID (not yet achieved); for LME (lowest dose with the maximum effect) in lungs: TBA-7371 BID, PBTZ169 QD; for average lung CFU reduction compared to untreated controls: 5 of 7 days per week; for CFU reduction in spleen: spleens; for CFU reduction in spleen / effect on lung CFU compared to pretreatment control and untreated controls: 4 weeks of treatment, all doses; for effect on lung CFU compared to pretreatment control and untreated controls: P > 0.05
M. tuberculosis Kurono = test system: M. tuberculosis Kurono; set-up: method as in PMID 32229496; conditions: chronic ICR mouse model, cited from earlier work
M. tuberculosis [9] = conditions: chronic BALB/c mouse model, cited from earlier work
[10] = test system: pulmonary pathology of M. tuberculosis-infected C3HeB/FeJ mice; assay: Pulmonary histopathology (pathologist scoring and LIRA); format: in vivo; conditions: 100 mg/kg QD, 8 weeks
M. tuberculosis [11] = conditions: cited from earlier work
M. tuberculosis H37Rv [12] = assay: MIC by broth microdilution (MABA), with and without 4% huSA (serum-shift assay); conditions: MIC with 4% huSA vs without
M. tuberculosis [13] = test system: M. tuberculosis; set-up: method as in PMID 24957839, PMID 24215368, PMID 24874895; conditions: acute BALB/c mouse model; 100 mg/kg QD; cited from earlier work
[14] = C3HeB/FeJ, mouse, in vivo, 5 mg/kg
[15] = lungs, 8 weeks, all three OPC-167832 groups, TBA-7371 medium and high dose, PBTZ169 medium and high dose, P < 0.05 Dunnett

In the case of `C[C@H]1COC2(CCN(c3nc(=O)c4cc(C(F)(F)F)cc([N+](=O)[O-])c4s3)CC2)O1` [BTZ043], the selectivity index [1] is listed as > 10,000, the MIC (M. tuberculosis H37Rv [2]) is listed as 0.001 mg/L (≈ 0.00232 µM) and the plasma protein binding [3] is listed as > 99.8%.

In the case of `O=C1CCc2c(OC[C@]3(O)CCN(c4c(F)cc(Cl)cc4F)C[C@H]3O)ccc(F)c2N1` [OPC-167832], the “Serum shift (fold increase)” value (M. tuberculosis Erdman) is listed as 8 fold, the “protein binding by this assay (MIC shift)” value (M. tuberculosis Erdman) is listed as ~88% and the “MED99 (minimal effective dose giving 2-log reduction in lung bacterial load vs untreated)” value (M. tuberculosis [4]) is listed as 5 mg/kg. For the same compound, the “drug level in caseous core / cellular-caseum interface at plasma Cmax, fold in excess of the MIC+huSA” value ([5]; 5 mg/kg QD, 2.5 weeks) was “approximately 21 fold”, the Cmax at 1 h [5, 14] was 35 ng/g and the concentration at 1 h [5, 14] was 190 ng/g. For the same compound, the concentration at 24 h [5, 14] was 34 to 108 ng/g, the “concentration in caseum (acellular) at T1, fold above the MIC+huSA” value ([6]; 1 h) was 12 fold and the “concentration in caseum at T1, fold in excess of the MIC+huSA” value ([6]; 1 h) was 20 fold. For the same compound, the “plasma and lung concentration at T1, fold above the MIC+huSA” value ([6]; 1 h) was 75-85 fold, the MBC ([7]; Mycobacterium tuberculosis, 168 h, rabbit caseum, read-out: caseum MBC90) was 500 mg/L (≈ 1090 µM) and the “reduction from treatment start in caseum” value ([7]; highest concentration tested (1 mg/ml), P = 0.0005) was 1 log. For the same compound, the “dose at which maximal efficacy in spleens was achieved” value [8] was 5 mg/kg, the “LME (lowest dose with the maximum effect) in lungs” value (“LME” below) [8] was 5 mg/kg and the “average lung CFU reduction compared to untreated controls” value (“average lung CFU reduction” for short) ([8]; 8 weeks, 5 and 20 mg/kg QD) was 3 log10 CFU. The “efficacy in lungs versus the pretreatment control group” value ([8]; lungs, 4 weeks, 20 mg/kg QD, P = 0.04 Dunnett) was “statistically significant efficacy”, the “lung bacterial load compared to the untreated control group” value ([8]; lungs, 4 weeks, all three dose groups (1.25, 5, 20 mg/kg QD), P = 0.002 to 0.03 Dunnett) was “statistically significant reduction in lung bacterial load” and the “lung bacterial load compared to the untreated control group” value [8, 15] was “statistical significant reduction in the lung bacterial load”. For the same compound, the “CFU reduction in spleen” value [8] was “dose-dependent CFU reduction”, the “CFU reduction in lungs versus the start of treatment” value (M. tuberculosis Kurono; 5 mg/kg for 4 weeks) was > 1.5 log10 CFU and the “dose showing bactericidal activity” value (M. tuberculosis Kurono) was 0.625 mg/kg.

In the case of `O=c1nc(N2CCN(CC3CCCCC3)CC2)sc2c([N+](=O)[O-])cc(C(F)(F)F)cc12` [PBTZ169, macozinone], the selectivity index [1] is given as > 10,000, the “CFU reduction in lungs versus untreated controls” value (M. tuberculosis [9]; after 4 weeks of treatment) is given as 1 log10 CFU and the “additional CFU reduction in lungs versus BTZ043” value (M. tuberculosis [9]) is given as 0.5 log10 CFU. For the same compound, the “additional CFU reduction in spleens versus BTZ043” value (M. tuberculosis [9]) was 1 log10 CFU, the “Serum shift (fold increase)” value (M. tuberculosis Erdman) was 8 fold and the “protein binding by this assay (MIC shift)” value (M. tuberculosis Erdman) was ~88%. The “type III cellular lesions, lung involvement (LIRA)” value [10] was “more than 35%”, the “type III lesion lung involvement relative to untreated control group (LIRA)” value [10] was “more than 2 fold” and the “MED99 (minimal effective dose giving 2-log reduction in lung bacterial load vs untreated)” value (M. tuberculosis [4]; published or reported mouse infection studies, no reference given) was 50 mg/kg. The “Cmax in the cellular-caseum interface and caseum, fold lower than plasma or whole lung Cmax” value ([5]; 50 mg/kg QD, 2.5 weeks) was 10 fold, the “concentration in plasma and lungs at T1 (Cmax)” value ([5]; 50 mg/kg QD, 2.5 weeks, T1 15 min) was “around 1 μg/ml or μg/g” and the “plasma and lung concentration at T1, fold above the MIC+huSA” value ([6]; 15 min) was 11-20 fold. The “LME” value [8] was 50 mg/kg, the “average lung CFU reduction” value ([8]; 8 weeks, 50 and 100 mg/kg QD) was 1.5 log10 CFU and the “effect on lung CFU compared to pretreatment control and untreated controls” value ([8]; lungs) was “not statistically significant”. The “lung bacterial load compared to the untreated control group” value [8, 15] was “statistical significant reduction in the lung bacterial load”, the “CFU reduction in spleen” value [8] was “no statistically significant CFU reduction” and the “MIC fold lower versus BTZ043” value (M. tuberculosis [11]) was 3 fold.

With `O=[N+]([O-])c1cn2c(n1)OC[C@@H](OCc1ccc(OC(F)(F)F)cc1)C2` [Pretomanid, pretomanid] the “Serum shift (fold increase)” value (M. tuberculosis Erdman) was 4 fold and the “Serum shift (fold increase)” value (M. tuberculosis H37Rv [12]) was 4 fold.

In the case of `COc1ncnc(Cn2cc(C(=O)NCCO)c3ncc(C)cc32)c1C` [TBA-7371], the “CFU reduction in lungs” value (M. tuberculosis [9]; 100 mg/kg QD) is listed as 1.5 log10 CFU, the “MED99 (minimal effective dose giving 2-log reduction in lung bacterial load vs untreated)” value (M. tuberculosis [4]) is listed as 100 mg/kg and the Cmax ([5]; C3HeB/FeJ, mouse, in vivo, 100 mg/kg) is listed as ~8600 ng/g. For the same compound, the “dose at which maximal efficacy in spleens was achieved” value [8] was ≥ 200 mg/kg, the “LME” value [8] was 100 mg/kg and the “average lung CFU reduction” value ([8]; 8 weeks, 100 and 200 mg/kg BID) was 1.5 log10 CFU. For the same compound, the “effect on lung CFU compared to pretreatment control and untreated controls” value ([8]; lungs) was “not statistically significant”, the “lung bacterial load compared to the untreated control group” value [8, 15] was “statistical significant reduction in the lung bacterial load” and the “CFU reduction in spleen” value [8] was “dose-dependent CFU reduction”. For the same compound, the “CFU reduction in lungs compared to untreated controls” value (M. tuberculosis [13]) was “more than 2 log10 CFU” and the MIC (M. tuberculosis [11]) was 0.64 mg/L (≈ 1.8 µM).
